According to ChEMBL document CHEMBL3259804, “Syk inhibitors with high potency in presence of blood” (Bioorg Med Chem Lett, 2014):
pIC50: −log10 of the molar value.

Assays:
Bone marrow cell = assay: Inhibition of IL3 dependent proliferation in […] mouse bone marrow cells using [3H]thymidine by liquid scintillation counting; assay type: functional, cell-based
[1] = target: T1, Tyrosine-protein kinase SYK (Homo sapiens, UniProt P43405); assay: Inhibition of Syk (unknown origin) using 4 uM peptide assessed as product formation after 60 mins incubation by microfluidic mobility shift assay
[2] = target: T1, Tyrosine-protein kinase SYK; assay: Inhibition of Syk in anti IgM-stimulated human Ramos cells assessed as BLNK phosphorylation by cellular assay
[3] = target: T2, Tyrosine-protein kinase ZAP-70 (Homo sapiens, UniProt P43403); assay: Inhibition of ZAP70 (unknown origin)
T2 sequence (P43403 whole entry): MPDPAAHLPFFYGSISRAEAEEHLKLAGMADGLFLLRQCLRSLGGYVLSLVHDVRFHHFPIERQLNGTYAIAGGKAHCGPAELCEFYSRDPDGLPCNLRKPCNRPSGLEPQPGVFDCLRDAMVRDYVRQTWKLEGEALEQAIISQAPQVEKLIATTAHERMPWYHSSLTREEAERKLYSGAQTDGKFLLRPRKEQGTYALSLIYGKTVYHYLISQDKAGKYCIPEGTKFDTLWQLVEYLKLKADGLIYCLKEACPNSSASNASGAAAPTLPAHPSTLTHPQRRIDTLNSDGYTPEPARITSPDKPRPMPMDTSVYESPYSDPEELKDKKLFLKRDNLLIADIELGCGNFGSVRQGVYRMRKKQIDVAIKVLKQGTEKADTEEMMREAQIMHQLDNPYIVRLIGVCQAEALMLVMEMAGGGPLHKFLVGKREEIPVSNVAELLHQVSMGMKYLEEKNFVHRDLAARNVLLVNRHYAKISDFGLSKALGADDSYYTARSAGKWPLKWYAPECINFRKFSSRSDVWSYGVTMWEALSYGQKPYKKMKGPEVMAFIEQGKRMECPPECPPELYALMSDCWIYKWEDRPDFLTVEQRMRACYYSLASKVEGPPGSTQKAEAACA

[4] = Volume of distribution at steady state in Sprague-Dawley rat at 1 mg/kg, iv and 3 mg/kg, po; assay type: ADME, organism-based; settings: in vivo, read-out: Vdss
[5] = Apparent permeability from basolateral to apical side in human Caco2 cells; assay type: ADME, cell-based; settings: Caco-2
[6] = Drug metabolism in pig liver microsomes assessed as conversion into 5-(1H-indol-7-ylamino)-7-((1R,2S)-2-aminocyclohexylamino)pyrido[4,3-d]pyrimidine-2,4(1H,3H)-dione by NMR; assay type: ADME, Sus scrofa
Rattus norvegicus [7] = assay: Cmax/dose in Sprague-Dawley rat at 1 mg/kg, iv and 3 mg/kg, po; assay type: ADME, organism-based; settings: in vivo
[8] = Apparent permeability from apical to basolateral side in human Caco2 cells; assay type: ADME, cell-based; settings: Caco-2
Rattus norvegicus [9] = assay: Dose normalized AUC in Sprague-Dawley rat at 3 mg/kg, po; assay type: ADME, organism-based; set-up: dose 3 mg/kg, route oral; settings: in vivo
[10] = Clearance in Sprague-Dawley rat at 1 mg/kg, iv and 3 mg/kg, po; assay type: ADME, organism-based; settings: in vivo
[11] = Terminal half life Sprague-Dawley rat at 1 mg/kg, iv and 3 mg/kg, po; assay type: ADME, organism-based; settings: in vivo, read-out: beta t1/2 (converted)
[12] = Plasma bioavailability in Sprague-Dawley rat at 1 mg/kg, iv and 3 mg/kg, po; assay type: ADME, organism-based
Liver = assay: Half life in rat liver S9 fraction assessed as conversion into 5-(1H-indol-7-ylamino)-7-((1R,2S)-2-aminocyclohexylamino)pyrido[4,3-d]pyrimidine-2,4(1H,3H)-dione; assay type: ADME, subcellular
[13] = Half life in dog liver S9 fraction; assay type: ADME, subcellular, Canis lupus familiaris
[14] = Half life in rat liver S9 fraction assessed as conversion into 5-(1H-indol-7-ylamino)-7-((1R,2S)-2-aminocyclohexylamino)pyrido[4,3-d]pyrimidine-2,4(1H,3H)-dione in presence of NADPH; assay type: ADME, subcellular
Rattus norvegicus [15] = assay: Dose normalized AUC in Sprague-Dawley rat at 1 mg/kg, iv; assay type: ADME, organism-based; set-up: dose 1 mg/kg, route intravenous; settings: in vivo
Liver microsome = assay: (§1) Half life in rat liver microsomes; assay type: ADME; settings: microsomes
[16] = target: Tyrosine-protein kinase JAK2 (Homo sapiens, UniProt O60674); assay: Inhibition of JAK2 (unknown origin)
[17] = target: Voltage-gated inwardly rectifying potassium channel KCNH2 (Homo sapiens, UniProt Q12809); assay: Inhibition of human ERG by Q-patch assay
[18] = target: T1, Tyrosine-protein kinase SYK; assay: Inhibition of Syk in human whole blood assessed as inhibition of P-SLP76 in CD14+ monocytes by flow cytometry
[19] = target: Tyrosine-protein kinase Lyn (Homo sapiens, UniProt P07948); assay: Inhibition of Lyn (unknown origin)
[20] = as §1; assay type: ADME; settings: liver microsomes

Sequence of Tyrosine-protein kinase Lyn (P07948 whole entry): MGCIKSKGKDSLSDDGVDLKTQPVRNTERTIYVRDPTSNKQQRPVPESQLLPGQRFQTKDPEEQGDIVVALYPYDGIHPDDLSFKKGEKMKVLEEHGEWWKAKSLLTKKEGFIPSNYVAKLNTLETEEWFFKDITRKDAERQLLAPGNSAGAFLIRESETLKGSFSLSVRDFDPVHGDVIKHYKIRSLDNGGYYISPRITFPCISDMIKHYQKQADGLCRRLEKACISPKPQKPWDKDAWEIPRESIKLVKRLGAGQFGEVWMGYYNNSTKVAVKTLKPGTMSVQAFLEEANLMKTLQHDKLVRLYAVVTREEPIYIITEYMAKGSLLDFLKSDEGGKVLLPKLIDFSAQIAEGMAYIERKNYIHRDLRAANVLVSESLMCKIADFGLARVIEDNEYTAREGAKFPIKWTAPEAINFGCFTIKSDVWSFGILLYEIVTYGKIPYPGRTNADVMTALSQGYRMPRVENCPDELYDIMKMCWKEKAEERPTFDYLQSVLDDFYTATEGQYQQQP
Sequence of Tyrosine-protein kinase JAK2 (O60674 whole entry): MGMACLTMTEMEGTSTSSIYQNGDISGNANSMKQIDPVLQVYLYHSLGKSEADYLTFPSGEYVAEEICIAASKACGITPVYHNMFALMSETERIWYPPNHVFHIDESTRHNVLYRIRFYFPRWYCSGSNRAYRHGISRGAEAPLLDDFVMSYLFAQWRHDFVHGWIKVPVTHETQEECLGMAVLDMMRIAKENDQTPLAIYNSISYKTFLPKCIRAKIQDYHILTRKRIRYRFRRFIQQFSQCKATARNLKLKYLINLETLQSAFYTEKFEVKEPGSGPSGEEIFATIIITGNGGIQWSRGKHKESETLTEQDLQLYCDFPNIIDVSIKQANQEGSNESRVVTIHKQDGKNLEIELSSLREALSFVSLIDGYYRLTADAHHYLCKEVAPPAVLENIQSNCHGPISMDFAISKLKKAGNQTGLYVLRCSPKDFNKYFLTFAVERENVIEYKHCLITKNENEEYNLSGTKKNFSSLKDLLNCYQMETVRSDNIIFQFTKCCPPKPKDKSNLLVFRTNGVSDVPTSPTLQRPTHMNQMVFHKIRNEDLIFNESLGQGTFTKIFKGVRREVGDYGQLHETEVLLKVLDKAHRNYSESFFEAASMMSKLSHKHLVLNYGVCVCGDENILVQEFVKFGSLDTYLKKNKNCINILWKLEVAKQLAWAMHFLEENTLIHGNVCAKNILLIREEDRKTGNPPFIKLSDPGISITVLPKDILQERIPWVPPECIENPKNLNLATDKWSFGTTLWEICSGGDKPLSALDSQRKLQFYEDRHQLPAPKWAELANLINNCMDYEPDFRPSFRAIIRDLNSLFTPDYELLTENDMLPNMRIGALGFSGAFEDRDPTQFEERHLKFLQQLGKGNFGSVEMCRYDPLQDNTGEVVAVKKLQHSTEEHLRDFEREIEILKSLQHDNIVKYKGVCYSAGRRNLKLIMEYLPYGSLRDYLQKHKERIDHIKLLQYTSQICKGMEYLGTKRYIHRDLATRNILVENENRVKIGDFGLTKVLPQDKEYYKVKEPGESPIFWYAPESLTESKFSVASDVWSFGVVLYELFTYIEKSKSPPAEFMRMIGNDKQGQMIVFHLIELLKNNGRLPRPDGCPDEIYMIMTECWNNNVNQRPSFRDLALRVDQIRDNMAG
Sequence of Voltage-gated inwardly rectifying potassium channel KCNH2 (Q12809 whole entry): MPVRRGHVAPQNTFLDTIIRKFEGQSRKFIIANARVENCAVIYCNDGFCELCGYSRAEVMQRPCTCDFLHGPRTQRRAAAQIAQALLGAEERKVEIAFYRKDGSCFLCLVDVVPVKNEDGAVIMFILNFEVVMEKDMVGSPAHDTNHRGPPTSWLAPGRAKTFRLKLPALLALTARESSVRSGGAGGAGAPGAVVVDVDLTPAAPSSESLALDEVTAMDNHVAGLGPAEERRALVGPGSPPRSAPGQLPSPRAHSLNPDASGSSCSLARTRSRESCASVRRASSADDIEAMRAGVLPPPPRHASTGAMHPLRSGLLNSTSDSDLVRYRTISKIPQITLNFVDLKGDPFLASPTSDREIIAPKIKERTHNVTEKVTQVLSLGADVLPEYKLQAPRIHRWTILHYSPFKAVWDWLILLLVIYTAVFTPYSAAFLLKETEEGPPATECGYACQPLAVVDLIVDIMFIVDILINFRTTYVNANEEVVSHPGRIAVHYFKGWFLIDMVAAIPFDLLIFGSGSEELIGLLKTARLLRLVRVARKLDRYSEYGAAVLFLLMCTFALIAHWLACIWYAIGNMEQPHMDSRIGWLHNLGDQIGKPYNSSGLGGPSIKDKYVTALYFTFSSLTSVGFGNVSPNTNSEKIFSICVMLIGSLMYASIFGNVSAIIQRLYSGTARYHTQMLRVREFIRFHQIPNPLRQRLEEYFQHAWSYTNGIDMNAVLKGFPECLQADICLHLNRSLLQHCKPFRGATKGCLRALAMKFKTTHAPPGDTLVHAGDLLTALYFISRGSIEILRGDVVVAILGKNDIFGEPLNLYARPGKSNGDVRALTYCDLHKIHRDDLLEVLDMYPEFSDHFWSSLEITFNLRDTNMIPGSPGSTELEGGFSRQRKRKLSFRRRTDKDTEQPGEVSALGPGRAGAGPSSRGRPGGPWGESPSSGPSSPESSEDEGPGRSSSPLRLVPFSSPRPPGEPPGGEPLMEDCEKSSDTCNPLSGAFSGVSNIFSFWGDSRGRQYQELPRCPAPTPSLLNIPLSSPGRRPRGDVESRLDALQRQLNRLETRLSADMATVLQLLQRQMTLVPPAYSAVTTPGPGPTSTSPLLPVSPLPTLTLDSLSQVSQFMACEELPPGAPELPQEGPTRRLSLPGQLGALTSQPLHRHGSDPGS

SMILES	pIC50 [1]	pIC50 [2]	pIC50 [3]	pIC50 [16]	pIC50 [18]	pIC50 [19]	half-life [20]	pIC50 (Bone marrow cell)	also measured
NC(=O)c1cnc(N[C@@H]2CCCC[C@@H]2N)nc1Nc1cccc(-n2nccn2)c1	–	–	–	–	–	–	–	5.23	–
N[C@H]1CCCC[C@H]1Nc1cc2nc[nH]c(=O)c2c(Nc2cccc3cc[nH]c23)n1	–	–	–	–	–	–	–	–	Vd [4]: 31 L/kg; Papp B→A [5]: 152 nm/s; Drug metabolism [6]: metabolite_detected; Cmax/dose (Rattus norvegicus [7]): 1 nM; Papp A→B [8]: 95 nm/s; AUC/dose (Rattus norvegicus [9]): 9 nM·h; clearance [10]: 4.14 L/h/kg; half-life [11]: 660 min; bioavailability [12]: 1%; t1/2 (Liver): < 5 min; half-life [13]: > 120 min; t1/2 [14]: < 5 min; AUC/dose (Rattus norvegicus [15]): 629 nM·h; t1/2 (Liver microsome): 22 min
Cn1ccc2cccc(Nc3nc(N[C@@H]4CCCC[C@@H]4N)cc4nc[nH]c(=O)c34)c21	5.80	5.03	< 5.00	< 5.00	–	< 5.00	9 min	< 5.00	–
N[C@H]1CCCC[C@H]1Nc1cc2nc[nH]c(=O)c2c(Nc2cccc3[nH]ccc23)n1	9.00	7.46	7.85	7.08	6.49	7.49	17 min	5.38	–

Now from value to compound, other results behind:

pIC50 [1]	pIC50 [2]	pIC50 [3]	pIC50 [16]	pIC50 [18]	pIC50 [19]	half-life [20]	SMILES	pIC50 (Bone marrow cell)	also measured
8.30	6.11	7.13	–	–	–	–	N[C@H]1CCCC[C@H]1Nc1cc2nc[nH]c(=O)c2c(Nc2cccc(-n3nccn3)c2)n1	6.60	–
8.70	7.33	7.48	6.72	6.09	7.36	25 min	Cc1c[nH]c2c(Nc3nc(N[C@@H]4CCCC[C@@H]4N)cc4nc[nH]c(=O)c34)cccc12	5.42	Vd [4]: 19 L/kg; Papp B→A [5]: 96 nm/s; Cmax/dose (Rattus norvegicus [7]): 4 nM; Papp A→B [8]: 95 nm/s; pIC50 [17]: < 4.52; AUC/dose (Rattus norvegicus [9]): 40 nM·h; clearance [10]: 2.34 L/h/kg; half-life [11]: 780 min; bioavailability [12]: 4%; AUC/dose (Rattus norvegicus [15]): 1109 nM·h
7.47	6.49	6.09	5.74	–	6.00	19 min	N[C@H]1CCCC[C@H]1Nc1cc2nc[nH]c(=O)c2c(Nc2cccc3c(Cl)c[nH]c23)n1	5.18	pIC50 [17]: 4.70
7.70	7.22	6.43	6.54	6.63	6.64	14 min	N[C@H]1COCC[C@H]1Nc1cc2nc[nH]c(=O)c2c(Nc2cccc3cc[nH]c23)n1	5.13	–
7.68	6.68	6.35	6.01	6.00	7.08	10 min	C[C@H](N)CNc1cc2nc[nH]c(=O)c2c(Nc2cccc3cc[nH]c23)n1	< 5.00	–
